Measurements reported in ChEMBL document CHEMBL4706631, “Potent and Selective Mitogen-Activated Protein Kinase Kinase 1/2 (MEK1/2) Heterobifunctional Small-molecule Degraders” (J Med Chem, 2020).

Test system: HT-29
Assay: Antiproliferative activity against human HT-29 cells incubated for 3 days by WST8 assay
Type: functional
Details: HT-29, 72 h, time 3 day

Row | Compound | GI50
1 | O=C1CCC(N2C(=O)c3ccc(NCCCCNCCCONC(=O)c4ccc(F)c(F)c4Nc4ccc(I)cc4F)cc3C2=O)C(=O)N1 (configuration not stated) | 1000 nM
2 | O=C1CCC(N2C(=O)c3cccc(NCCOCCNCCCONC(=O)c4ccc(F)c(F)c4Nc4ccc(I)cc4F)c3C2=O)C(=O)N1 (configuration not stated) | 1200 nM
3 | Cc1ncsc1-c1ccc([C@H](C)NC(=O)[C@@H]2C[C@@H](O)CN2C(=O)[C@@H](NC(=O)CCCCCCCCCCNCCCCONC(=O)c2ccc(F)c(F)c2Nc2ccc(I)cc2F)C(C)(C)C)cc1 | 43 nM
4 | O=C1CCC(N2C(=O)c3cccc(NCCCCCCCCNCCCONC(=O)c4ccc(F)c(F)c4Nc4ccc(I)cc4F)c3C2=O)C(=O)N1 (configuration not stated) | 3500 nM
5 | O=C1CCC(N2C(=O)c3cccc(NCCCCCNCCCONC(=O)c4ccc(F)c(F)c4Nc4ccc(I)cc4F)c3C2=O)C(=O)N1 (configuration not stated) | 1800 nM
6 | O=C1CCC(N2C(=O)c3cccc(NCCCCCCNCCCONC(=O)c4ccc(F)c(F)c4Nc4ccc(I)cc4F)c3C2=O)C(=O)N1 (configuration not stated) | 3800 nM
7 | O=C1CCC(N2C(=O)c3ccc(NCCOCCOCCOCCNCCCONC(=O)c4ccc(F)c(F)c4Nc4ccc(I)cc4F)cc3C2=O)C(=O)N1 (configuration not stated) | 1500 nM
8 | Cc1ncsc1-c1ccc(CNC(=O)[C@@H]2C[C@@H](O)CN2C(=O)[C@@H](NC(=O)CCCCNCCCONC(=O)c2ccc(F)c(F)c2Nc2ccc(I)cc2F)C(C)(C)C)cc1 | 3000 nM
9 | Cc1ncsc1-c1ccc(CNC(=O)[C@@H]2C[C@@H](O)CN2C(=O)[C@@H](NC(=O)CCOCCNCCCONC(=O)c2ccc(F)c(F)c2Nc2ccc(I)cc2F)C(C)(C)C)cc1 | 4800 nM
10 | Cc1ncsc1-c1ccc(CNC(=O)[C@@H]2C[C@@H](O)CN2C(=O)[C@@H](NC(=O)CCCNCCCONC(=O)c2ccc(F)c(F)c2Nc2ccc(I)cc2F)C(C)(C)C)cc1 | 3100 nM
11 | Cc1ncsc1-c1ccc(CNC(=O)[C@@H]2C[C@@H](O)CN2C(=O)[C@@H](NC(=O)COCCOCCNCCCONC(=O)c2ccc(F)c(F)c2Nc2ccc(I)cc2F)C(C)(C)C)cc1 | 1600 nM
12 | O=C1CCC(N2C(=O)c3cccc(NCCOCCOCCNCCCONC(=O)c4ccc(F)c(F)c4Nc4ccc(I)cc4F)c3C2=O)C(=O)N1 (configuration not stated) | 1300 nM
13 | O=C1CCC(N2C(=O)c3ccc(NCCCNCCCONC(=O)c4ccc(F)c(F)c4Nc4ccc(I)cc4F)cc3C2=O)C(=O)N1 (configuration not stated) | 500 nM
14 | O=C1CCC(N2C(=O)c3cccc(NCCCNCCCONC(=O)c4ccc(F)c(F)c4Nc4ccc(I)cc4F)c3C2=O)C(=O)N1 (configuration not stated) | 1100 nM
15 | Cc1ncsc1-c1ccc(CNC(=O)[C@@H]2C[C@@H](O)CN2C(=O)[C@@H](NC(=O)COCCNCCCONC(=O)c2ccc(F)c(F)c2Nc2ccc(I)cc2F)C(C)(C)C)cc1 | 4000 nM
16 | Cc1ncsc1-c1ccc(CNC(=O)[C@@H]2C[C@@H](O)CN2C(=O)[C@@H](NC(=O)COCCOCCOCCNCCCONC(=O)c2ccc(F)c(F)c2Nc2ccc(I)cc2F)C(C)(C)C)cc1 | 1300 nM
17 | Cc1ncsc1-c1ccc(CNC(=O)[C@@H]2C[C@@H](O)CN2C(=O)[C@@H](NC(=O)CCOCCOCCNCCCONC(=O)c2ccc(F)c(F)c2Nc2ccc(I)cc2F)C(C)(C)C)cc1 | 1600 nM

Second part, the compound after the results:

Row | GI50 | Compound
18 | 600 nM | Cc1ncsc1-c1ccc(CNC(=O)[C@@H]2C[C@@H](O)CN2C(=O)[C@@H](NC(=O)CCCCCCCCNCCCONC(=O)c2ccc(F)c(F)c2Nc2ccc(I)cc2F)C(C)(C)C)cc1
19 | 400 nM | O=C1CCC(N2C(=O)c3cccc(NCCNCCCONC(=O)c4ccc(F)c(F)c4Nc4ccc(I)cc4F)c3C2=O)C(=O)N1 (configuration not stated)
20 | 300 nM | O=C1CCC(N2C(=O)c3ccc(NCCCCCCCCNCCCONC(=O)c4ccc(F)c(F)c4Nc4ccc(I)cc4F)cc3C2=O)C(=O)N1 (configuration not stated)
21 | 3300 nM | Cc1ncsc1-c1ccc(CNC(=O)[C@@H]2C[C@@H](O)CN2C(=O)[C@@H](NC(=O)CCOCCOCCOCCNCCCONC(=O)c2ccc(F)c(F)c2Nc2ccc(I)cc2F)C(C)(C)C)cc1
22 | 99 nM | Cc1ncsc1-c1ccc([C@H](C)NC(=O)[C@@H]2C[C@@H](O)CN2C(=O)[C@@H](NC(=O)CCCCCCCCCCCNCCCONC(=O)c2ccc(F)c(F)c2Nc2ccc(I)cc2F)C(C)(C)C)cc1
23 | 600 nM | O=C1CCC(N2C(=O)c3cccc(NCCOCCOCCOCCOCCNCCCONC(=O)c4ccc(F)c(F)c4Nc4ccc(I)cc4F)c3C2=O)C(=O)N1 (configuration not stated)
24 | 500 nM | O=C1CCC(N2C(=O)c3ccc(NCCCCCNCCCONC(=O)c4ccc(F)c(F)c4Nc4ccc(I)cc4F)cc3C2=O)C(=O)N1 (configuration not stated)
25 | 300 nM | FC(F)c1nc2ccccc2n1-c1nc(N2CCOCC2)nc(N2CCOCC2)n1 [ZSTK-474]
26 | 1400 nM | O=C1CCC(N2C(=O)c3ccc(NCCOCCNCCCONC(=O)c4ccc(F)c(F)c4Nc4ccc(I)cc4F)cc3C2=O)C(=O)N1 (configuration not stated)
27 | 100 nM | CCCS(=O)(=O)Nc1ccc(F)c(C(=O)c2c[nH]c3ncc(-c4ccc(Cl)cc4)cc23)c1F [VEMURAFENIB]
28 | 500 nM | O=C1CCC(N2C(=O)c3ccc(NCCCCCCCNCCCONC(=O)c4ccc(F)c(F)c4Nc4ccc(I)cc4F)cc3C2=O)C(=O)N1 (configuration not stated)
29 | 1700 nM | Cc1ncsc1-c1ccc(CNC(=O)[C@@H]2C[C@@H](O)CN2C(=O)[C@@H](NC(=O)CCOCCOCCOCCOCCNCCCONC(=O)c2ccc(F)c(F)c2Nc2ccc(I)cc2F)C(C)(C)C)cc1
30 | 500 nM | Cc1ncsc1-c1ccc(CNC(=O)[C@@H]2C[C@@H](O)CN2C(=O)[C@@H](NC(=O)CCCCCCCCCNCCCONC(=O)c2ccc(F)c(F)c2Nc2ccc(I)cc2F)C(C)(C)C)cc1
31 | 400 nM | Cc1ncsc1-c1ccc(CNC(=O)[C@@H]2C[C@@H](O)CN2C(=O)[C@@H](NC(=O)CCCCCCCCCCNCCCONC(=O)c2ccc(F)c(F)c2Nc2ccc(I)cc2F)C(C)(C)C)cc1
32 | 1900 nM | O=C1CCC(N2C(=O)c3cccc(NCCCCNCCCONC(=O)c4ccc(F)c(F)c4Nc4ccc(I)cc4F)c3C2=O)C(=O)N1 (configuration not stated)
33 | 1100 nM | O=C1CCC(N2C(=O)c3ccc(NCCCCCCNCCCONC(=O)c4ccc(F)c(F)c4Nc4ccc(I)cc4F)cc3C2=O)C(=O)N1 (configuration not stated)
34 | 1100 nM | O=C1CCC(N2C(=O)c3ccc(NCCOCCOCCNCCCONC(=O)c4ccc(F)c(F)c4Nc4ccc(I)cc4F)cc3C2=O)C(=O)N1 (configuration not stated)
35 | 600 nM | O=C1CCC(N2C(=O)c3cccc(NCCOCCOCCOCCOCCOCCNCCCONC(=O)c4ccc(F)c(F)c4Nc4ccc(I)cc4F)c3C2=O)C(=O)N1 (configuration not stated)
36 | 1400 nM | Cc1ncsc1-c1ccc(CNC(=O)[C@@H]2C[C@@H](O)CN2C(=O)[C@@H](NC(=O)CCCCCCNCCCONC(=O)c2ccc(F)c(F)c2Nc2ccc(I)cc2F)C(C)(C)C)cc1
37 | 500 nM | O=C1CCC(N2C(=O)c3ccc(NCCOCCOCCOCCOCCNCCCONC(=O)c4ccc(F)c(F)c4Nc4ccc(I)cc4F)cc3C2=O)C(=O)N1 (configuration not stated)
38 | 5000 nM | Cc1ncsc1-c1ccc(CNC(=O)[C@@H]2C[C@@H](O)CN2C(=O)[C@@H](NC(=O)CCNCCCONC(=O)c2ccc(F)c(F)c2Nc2ccc(I)cc2F)C(C)(C)C)cc1
39 | 55 nM | Cc1ncsc1-c1ccc([C@H](C)NC(=O)[C@@H]2C[C@@H](O)CN2C(=O)[C@@H](NC(=O)CCCCCCCCCNCCCCONC(=O)c2ccc(F)c(F)c2Nc2ccc(I)cc2F)C(C)(C)C)cc1
40 | 4500 nM | O=C1CCC(N2C(=O)c3cccc(NCCCCCCCNCCCONC(=O)c4ccc(F)c(F)c4Nc4ccc(I)cc4F)c3C2=O)C(=O)N1 (configuration not stated)
41 | 1800 nM | Cc1ncsc1-c1ccc(CNC(=O)[C@@H]2C[C@@H](O)CN2C(=O)[C@@H](NC(=O)CNCCCONC(=O)c2ccc(F)c(F)c2Nc2ccc(I)cc2F)C(C)(C)C)cc1
42 | 240 nM | Cc1ncsc1-c1ccc([C@H](C)NC(=O)[C@@H]2C[C@@H](O)CN2C(=O)[C@@H](NC(=O)CCCCCCCCCNCCCONC(=O)c2ccc(F)c(F)c2Nc2ccc(I)cc2F)C(C)(C)C)cc1
